# In patent publication US20210363152A1, “AMINOAZINE AMIDES” (Hoffmann-La Roche Inc., priority 2018, published 2021):
# Molecular target: T1, Autotaxin enzyme (ATX) (Homo sapiens, UniProt Q13822)
# T1 construct: purchased Echelon Biosciences, Inc. E-4000
# Test: In vitro ATX assay (enzymatic ATX inhibition, LPC 14:0 substrate, choline oxidase/HRP absorbance readout)
# Format: biochemical
# Conditions: 0.3 mM LPC 14:0, 37° C., 4 hours, absorbance 555 nm
# Summary of the method: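 Human ATX (10 ng/mL as added) in pH 9.0 Tris buffer with NaCl, MgCl2, CoCl2 and Triton X-100 was preincubated with compound for 15 min at 37 °C. LPC 14:0 (0.3 mM final) was then hydrolysed for 4 h at 37 °C. Released choline was detected by choline oxidase/HRP with 4-AAP/TOOS, read after 15 min RT as absorbance at 555 nm, giving banded IC50 values.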
row,Compound,IC50
1,CC(C)c1cc(CNc2ncc(C(=O)N3CCC34COC4)cn2)cc(S(F)(F)(F)(F)F)c1 [Example 19],0.1 to 1 µM
2,"O=C(c1cnc(NCc2cc(OC(F)(F)F)cc(C3CC3)c2)nc1)N1CCC12CCOC2 (stereo not drawn) [Example 97, (2-((3-cyclopropyl-5-(trifluoromethoxy)benzyl)ami-no)pyrimidin-5-yl)(6-oxa-1-azaspiro[3.4]octan-1-yl)methanone]",< 0.1 µM
3,"O=C(c1cnc(NCc2cc(OC(F)(F)F)cc(N3CCC3)c2)nc1)N1CCC12COC2 [Example 158, (2-((3-(Azetidin-1-yl)-5-(trifluoromethoxy)benzyl)amino)pyrimidin-5-yl)(6-oxa-1-azaspiro[3.3]heptan-1-yl)methanone]",< 0.1 µM
4,"O=C(c1cnc(NCc2cc(OC(F)(F)F)cc(C3CC3)c2)nc1)N1CCC12CCCOC2 (single isomer, unassigned) [Example 121, (2-((3-Cyclopropyl-5-(trifluoromethoxy)benzyl)amino)-pyrimidin-5-yl)(6-oxa-1-azaspiro[3.5]nonan-1-yl)methanone]",< 0.1 µM

# Continued, values first:
row,IC50,Compound
1,< 0.1 µM,"CC1CCN1C(=O)c1cnc(N[C@@H]2Cc3ccc(Cl)cc3C2)nc1 (stereo partly drawn) [Example 133, (2-(((R)-5-Chloro-2,3-dihydro-1H-inden-2-yl)amino)pyrimidin-5-yl)(2-methylazetidin-1-yl)methanone]"
2,0.1 to 1 µM,"CC(C)(O)C1CN(C(=O)c2cnc(NCc3cc(OC(F)(F)F)cc(C4CC4)c3)nc2)C1 [Example 84, (2-((3-cyclopropyl-5-(trifluoromethoxy)benzyl)ami-no)pyrimidin-5-yl)(3-(2-hydroxypropan-2-yl)azetidin-1-yl)methanone]"
3,< 0.1 µM,CC(C)c1cc(CNc2ncc(C(=O)N3CCC3C)cn2)cc(OC(F)(F)F)c1 (stereo not drawn) [Example 6]
4,0.1 to 1 µM,"CC(C)Oc1ccc2c(c1)CC(Nc1ncc(C(=O)N3CCC34COC4)cn1)C2 (stereo not drawn) [Example 161, (2-((5-Isopropoxy-2,3-dihydro-1H-inden-2-yl)amino)pyrimidin-5-yl)(6-oxa-1-azaspiro[3.3]heptan-1-yl)methanone]"
5,< 0.1 µM,O=C(c1cnc(NC2Cc3ccc(Cl)cc3C2)nc1)N1CCC1C(F)F (stereo not drawn) [Example 45]
